Laboratory results reported in ChEMBL document CHEMBL1138958, “Opioid receptor binding and antinociceptive activity of the analogues of endomorphin-2 and morphiceptin with phenylalanine mimics in the position 3 or 4” (Bioorg Med Chem Lett, 2006).
Where a SMILES comes first, the peptide text is derived from it. [ ]: non-standard residue; d: D form. hPhe = N[C@@H](CCc1ccccc1)C(=O)O

Columns and labels:
[1] = biological target: Mu-type opioid receptor (Rattus norvegicus) (UniProt P33535); assay: Decrease of maximum binding of [3H]DAMGO to mu opioid receptor in Wistar rat brain at 10000 nm; parameters: scale not given: the % may be the effect or the level left
Sequence of Mu-type opioid receptor (Rattus norvegicus) (P33535 whole entry): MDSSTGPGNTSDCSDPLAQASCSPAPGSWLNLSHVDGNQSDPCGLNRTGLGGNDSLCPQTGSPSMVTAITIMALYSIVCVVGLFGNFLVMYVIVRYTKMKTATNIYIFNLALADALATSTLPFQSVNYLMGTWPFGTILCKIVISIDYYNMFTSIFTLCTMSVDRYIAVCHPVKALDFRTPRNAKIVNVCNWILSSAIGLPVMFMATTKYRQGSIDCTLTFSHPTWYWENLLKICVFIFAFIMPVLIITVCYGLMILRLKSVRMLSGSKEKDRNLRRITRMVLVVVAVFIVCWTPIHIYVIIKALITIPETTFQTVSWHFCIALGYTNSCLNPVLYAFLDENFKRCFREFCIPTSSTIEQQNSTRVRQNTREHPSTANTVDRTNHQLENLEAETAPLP

[2] = biological target: Delta-type opioid receptor (Rattus norvegicus, UniProt P33533); assay: Displacement of [3H]DPDPE from delta opioid receptor in Wistar rat brain
Sequence of Delta-type opioid receptor (P33533 whole entry): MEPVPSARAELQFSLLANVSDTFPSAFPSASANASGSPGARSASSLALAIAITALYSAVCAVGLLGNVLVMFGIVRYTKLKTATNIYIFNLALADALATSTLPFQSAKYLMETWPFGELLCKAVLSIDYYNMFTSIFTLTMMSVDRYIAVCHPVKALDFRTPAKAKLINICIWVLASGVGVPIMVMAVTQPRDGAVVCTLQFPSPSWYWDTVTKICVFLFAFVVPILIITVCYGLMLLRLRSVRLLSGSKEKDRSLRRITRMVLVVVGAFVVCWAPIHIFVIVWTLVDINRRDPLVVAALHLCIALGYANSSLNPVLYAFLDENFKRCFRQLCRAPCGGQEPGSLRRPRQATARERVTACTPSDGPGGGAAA

Mu-type opioid receptor = Mu-type opioid receptor (Rattus norvegicus, UniProt P33535); assay: Displacement of [3H]DAMGO from mu opioid receptor in Wistar rat brain
Sequence of Mu-type opioid receptor (P33535 whole entry): as the sequence (P33535 whole entry) above

Mus musculus [3] = assay: Antinociceptive activity in mouse at 4ul, icv by hot plate test assessed as area under %MPE - time curve after 30 mins; type: functional
Mus musculus [4] = assay: Antinociceptive activity in mouse at 4 ul, icv by hot plate test assessed as area under %MPE - time curve after 15 mins; type: functional
Mus musculus [5] = assay: Antinociceptive activity in mouse at 4ul, icv by hot plate test assessed as area under %MPE - time curve after 45 mins; type: functional
[6] = Half life in mouse brain at 10 ul; type: ADME, organism-based

Compound	Activity [1] [%]	Ki [2] [nM]	Ki (Mu-type opioid receptor) [nM]	Activity (Mus musculus [3]) [%]	Activity (Mus musculus [4]) [%]	Activity (Mus musculus [5]) [%]	half-life [6] [min]
NC(=O)[C@@H]1CCCN1C(=O)[C@H](NC(=O)[C@@H]1CCCN1C(=O)[C@@H](N)Cc1ccc(O)cc1)c1ccccc1	24.5	> 10000	–	–	–	–	–
NC(=O)[C@H](Cc1ccccc1)NC(=O)[C@H](NC(=O)[C@@H]1CCCN1C(=O)[C@@H](N)Cc1ccc(O)cc1)c1ccccc1	–	2100	1350	–	–	–	–
NC(=O)[C@H](Cc1ccccc1)NC(=O)[C@H](CCc1ccccc1)NC(=O)[C@@H]1CCCN1C(=O)[C@@H](N)Cc1ccc(O)cc1	–	> 10000	28.4	50	67.5	38.2	32.5
NC(=O)[C@H](Cc1ccccc1)NC(=O)[C@H](Cc1ccccc1)NC(=O)[C@@H]1CCCN1C(=O)[C@@H](N)Cc1ccc(O)cc1 [ENDOMORPHIN 2]	–	–	–	34.8	40.1	–	19.7
NC(=O)[C@H](CCc1ccccc1)NC(=O)[C@H](Cc1ccccc1)NC(=O)[C@@H]1CCCN1C(=O)[C@@H](N)Cc1ccc(O)cc1	–	> 10000	74.5	–	–	–	–
NC(=O)[C@@H](NC(=O)[C@H](Cc1ccccc1)NC(=O)[C@@H]1CCCN1C(=O)[C@@H](N)Cc1ccc(O)cc1)c1ccccc1	–	> 10000	26.9	42.2	54.2	35.5	24.1
NC(=O)[C@H](Cc1ccccc1)NC(=O)[C@@H](NC(=O)[C@@H]1CCCN1C(=O)[C@@H](N)Cc1ccc(O)cc1)c1ccccc1	–	> 10000	268	–	–	–	–
NC(=O)[C@@H]1CCCN1C(=O)[C@@H](NC(=O)[C@@H]1CCCN1C(=O)[C@@H](N)Cc1ccc(O)cc1)c1ccccc1	–	> 10000	–	–	–	–	–
NC(=O)[C@@H]1CCCN1C(=O)[C@H](Cc1ccccc1)NC(=O)[C@@H]1CCCN1C(=O)[C@@H](N)Cc1ccc(O)cc1 [MORPHICEPTIN] (H-YPFP-NH2)	–	> 10000	135	–	–	–	–
NC(=O)[C@H](NC(=O)[C@H](Cc1ccccc1)NC(=O)[C@@H]1CCCN1C(=O)[C@@H](N)Cc1ccc(O)cc1)c1ccccc1	–	> 10000	216	–	–	–	–
NC(=O)[C@@H]1CCCN1C(=O)[C@H](CCc1ccccc1)NC(=O)[C@@H]1CCCN1C(=O)[C@@H](N)Cc1ccc(O)cc1 (H-YP[hPhe]P-NH2)	–	> 10000	586	–	–	–	–
